Data reported in patent EP0539209A1, “Benzo-isoquinoline derivatives and analogs and their use in therapeutics” (THE UPJOHN COMPANY, priority 1991, dated 1993).

Tests used:
dopamine D1 receptor = dopamine D1 receptor (Homo sapiens, UniProt P21728); experiment: CNS Receptor Binding Assay, dopamine D1; conditions: PART I - TABLE I; test compounds at 1 microMolar concentration; standard SCH 23390
From the text: (§1) CNS Receptor Binding Assay (PART I - TABLE I): The Central Nervous System Binding Assay measures the percent inhibibition from experiments employing test compounds at 1 microMolar concentration competing with various radioligands for binding to whole brain membranes, membranes prepared from specific brain structures, or membranes prepared from cell lines expressing cloned receptors. When percent inhibition is equal to 100 the test compound binds as well as the standard compound. The standard compound for the 5-HT1A receptor is 8-OH-DPAT. The standard compound for the dopamine D1 receptor is SCH 23390.
as §1, with “(PART II” for “(PART I”, “percent inhibition” for “percent inhibibition”, “the” for “the 5-HT1A receptor is 8-OH-DPAT. The standard compound for the”

5-HT1A receptor = molecular target: T1, 5-HT1A receptor (Homo sapiens, UniProt P08908); experiment: CNS Receptor Binding Assay, 5-HT1A; conditions: PART I - TABLE I; test compounds at 1 microMolar concentration competing with radioligand; 100 = binds as well as standard 8-OH-DPAT
T1 sequence (P08908 1-422): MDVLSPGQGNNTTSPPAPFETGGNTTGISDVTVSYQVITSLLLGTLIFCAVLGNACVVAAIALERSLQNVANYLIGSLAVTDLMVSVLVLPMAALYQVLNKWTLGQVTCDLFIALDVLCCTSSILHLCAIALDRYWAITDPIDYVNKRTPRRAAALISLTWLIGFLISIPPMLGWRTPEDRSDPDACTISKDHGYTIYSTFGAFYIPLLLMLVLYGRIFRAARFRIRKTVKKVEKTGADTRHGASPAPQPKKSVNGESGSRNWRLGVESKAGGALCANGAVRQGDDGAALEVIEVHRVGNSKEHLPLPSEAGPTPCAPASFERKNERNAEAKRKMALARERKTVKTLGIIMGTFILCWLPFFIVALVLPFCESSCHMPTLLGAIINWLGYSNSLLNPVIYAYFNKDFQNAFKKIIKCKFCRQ
From the text: as §1

Dopamine - D2 = Dopamine - D2 (Homo sapiens, UniProt P14416); experiment: CNS Receptor Binding Assay, dopamine D2; conditions: PART I - TABLE I; test compounds at 1 microMolar concentration
From the text: as §1
as §1, with “(PART II” for “(PART I”, “percent inhibition” for “percent inhibibition”, “the” for “the 5-HT1A receptor is 8-OH-DPAT. The standard compound for the”

Sequence of dopamine D1 receptor (P21728 whole entry, species assumed): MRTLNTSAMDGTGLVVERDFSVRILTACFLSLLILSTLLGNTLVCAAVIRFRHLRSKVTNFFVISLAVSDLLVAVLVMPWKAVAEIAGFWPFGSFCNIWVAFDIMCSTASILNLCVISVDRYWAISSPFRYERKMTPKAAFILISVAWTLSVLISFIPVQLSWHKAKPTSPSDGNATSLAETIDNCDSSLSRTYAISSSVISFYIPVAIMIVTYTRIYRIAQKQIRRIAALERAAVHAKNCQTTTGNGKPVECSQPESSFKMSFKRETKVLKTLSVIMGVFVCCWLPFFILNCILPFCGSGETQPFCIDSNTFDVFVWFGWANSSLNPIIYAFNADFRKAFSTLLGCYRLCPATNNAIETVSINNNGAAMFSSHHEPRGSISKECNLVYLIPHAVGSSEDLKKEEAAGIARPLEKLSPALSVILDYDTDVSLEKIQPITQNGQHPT
Sequence of Dopamine - D2 (P14416 whole entry): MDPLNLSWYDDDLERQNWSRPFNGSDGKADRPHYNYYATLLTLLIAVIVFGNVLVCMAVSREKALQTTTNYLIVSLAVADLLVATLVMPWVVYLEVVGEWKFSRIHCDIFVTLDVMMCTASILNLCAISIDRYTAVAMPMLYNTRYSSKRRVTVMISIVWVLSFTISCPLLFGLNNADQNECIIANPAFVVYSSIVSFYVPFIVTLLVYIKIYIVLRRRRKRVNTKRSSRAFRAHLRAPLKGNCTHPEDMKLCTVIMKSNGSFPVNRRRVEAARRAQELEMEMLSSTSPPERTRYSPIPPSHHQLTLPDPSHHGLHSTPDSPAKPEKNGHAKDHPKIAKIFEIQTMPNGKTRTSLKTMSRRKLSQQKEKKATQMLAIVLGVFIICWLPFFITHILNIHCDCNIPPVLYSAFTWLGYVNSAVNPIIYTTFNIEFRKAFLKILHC

Row | Structure (SMILES) | inhibition at 1 µM (dopamine D1 receptor) | inhibition at 1 µM (5-HT1A receptor) | inhibition at 1 µM (Dopamine - D2) | Dopamine - D1 % inhibition (dopamine D1 receptor) | 5-HT1A % inhibition (5-HT1A receptor) | Dopamine - D2 % inhibition (Dopamine - D2)
1 | CCCN1CCC2Cc3c(C#N)cccc3C2CC1 (single isomer, unassigned) [compound 8] | 7% | 15% | 35% |  |  | 
2 | CCCN1CCC2Cc3cccc(C(N)=O)c3C2CC1 (single isomer, unassigned) [compound 4] |  |  |  | 0% | 21% | 2%
3 | CCCN1CCC2Cc3c(C(N)=O)cccc3C2CC1 (single isomer, unassigned) [compound 6] |  |  |  | 50% | 18% | 31%
4 | CCCN1CCC2Cc3c(C(N)=O)cccc3C2CC1 (single isomer, unassigned) [compound 5] |  | 24% | 24% | 10% |  | 
5 | CCCN1CCC2Cc3c(C#N)cccc3C2CC1 (single isomer, unassigned) [compound 7] |  |  |  | 11% | 17% | 22%
6 | CCCN1CCC2Cc3c(Cl)ccc(OC)c3C2CC1 (stereo not drawn) [compound 1] | 57% | 99% | 74% |  |  | 
7 | CCCN1CCC2Cc3cccc(C(N)=O)c3C2CC1 (single isomer, unassigned) [compound 3] |  |  |  | 13% | 93% | 45%
